Laboratory results: patent US8765748B2, “Indazolyl, benzimidazolyl, benzotriazolyl substituted indolinone derivatives as kinase inhibitors useful in the treatment of cancer” (University Health Network, priority 2007, dated 2014)
pIC50: −log10 of the molar value. Where two headings read alike, the source gives them in different places.

Columns and labels:
FGFR1 = test: Millipore kinase assay, radiolabelled phosphopeptide filter binding, IC50 estimate; type: biochemical; details: estimated from inhibition at three compound concentrations; ATP at the Km
Procedure: (§1) Kinase assays at Millipore were performed using a radiolabelled phosphopeptide filter binding detection system, in duplicate, at each compound concentration. The ATP substrate concentration in the reactions was at the Km for each enzyme.
(§2) To allow for a more direct comparison of compound inhibition, an IC50 value was estimated from the inhibition determined at three compound concentrations. Several assumptions were made to allow this calculation using a 4 parameter non linear curve fit model, including full inhibition set at 100%, no inhibition set to 0%, and a curve fit parameter set at 1. The inflection point was reported as the estimated IC50.

FLT-1 = biological target: T1, FLT-1 (Homo sapiens, UniProt P17948); test: as above; type: biochemical; details: estimated from inhibition at three compound concentrations; ATP at the Km
T1 construct: purchased Millipore (assay service)
Procedure: as §1, §2

PDGFRβ = biological target: T2, PDGFRβ (Homo sapiens, UniProt P09619); test: as above; type: biochemical; details: estimated from inhibition at three compound concentrations; ATP at the Km
T2 construct: purchased Millipore (assay service)
Procedure: as §1, §2

A549 lung cancer cells = test: Cell growth inhibition, Sulforhodamine B assay (SRB); type: cell-based; details: Homo sapiens, A549, 120 h, 5 days culture, read-out: Cell Line GI50 Range, A-549
Procedure, shortened: (§3)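 Cells seeded 24 h before compound addition, then exposed to 10 nM–50 μM final compound in DMEM + 10% FBS for 5 days. Growth measured by TCA fixation, SRB staining and absorbance at 570 nm; % inhibition relative to DMSO-only cells, with GI50 fitted for cytotoxic compounds.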

[1] = system: HCC1954 basal breast cancer cell line; test: as above; type: cell-based; details: Homo sapiens
Procedure, shortened: as §3

[2] = system: MCF-7 luminal breast cancer cell line; test: as above; type: cell-based; details: Homo sapiens, MCF7, 120 h; 5 days culture, SRB; read-out: Cell Line GI50 Range, MCF-7
Procedure, shortened: as §3

[3] = system: MDA-MB-468 basal breast cancer cell line; test: as above; type: cell-based; details: Homo sapiens, MDA-MB-468, 120 h; 5 days culture, SRB; read-out: Cell Line GI50 Range, MDA-MB-468
Procedure, shortened: as §3

SW620 colon cancer cells = test: as above; type: cell-based; details: Homo sapiens, SW-620, 120 h, 5 days culture, read-out: Cell Line GI50 Range, SW-620
Procedure, shortened: as §3

[4] = system: human mammary epithelial primary cells (HMEC); test: as above; type: cell-based; details: 120 h, 5 days culture, read-out: Cell Line GI50 Range, HMEC
Procedure, shortened: as §3

Brk = biological target: T3, Brk (Homo sapiens, UniProt Q13882); test: Kinase Selectivity Assay (CEREP, HTRF); type: biochemical; details: read-out: % Inhibition at 10 μM Concentration, Brk
T3 construct: CEREP, France (ran the assays)
Procedure: (§4) kinase, ROCK2, RSK2, Src kinase, Syk, and TRKA. The % Inhibition was determined

KDR kinase (VEGFR2) = KDR kinase (VEGFR2) (Homo sapiens, UniProt P35968); test: Kinase Selectivity Assay (CEREP, HTRF); type: biochemical; details: read-out: % Inhibition at 10 μM Concentration, KDR (VEGFR2)
Procedure: as §4

PKCb2 = PKCb2 (Homo sapiens, UniProt P05771); test: Kinase Selectivity Assay (CEREP, HTRF); type: biochemical; details: read-out: % Inhibition at 10 μM Concentration, PKCbeta 2
Procedure: as §4

p38d kinase = biological target: T4, p38d kinase (Homo sapiens, UniProt O15264); test: Kinase Selectivity Assay (CEREP, HTRF); type: biochemical; details: read-out: % Inhibition at 10 μM Concentration, p38delta
T4 sequence (O15264 1-365): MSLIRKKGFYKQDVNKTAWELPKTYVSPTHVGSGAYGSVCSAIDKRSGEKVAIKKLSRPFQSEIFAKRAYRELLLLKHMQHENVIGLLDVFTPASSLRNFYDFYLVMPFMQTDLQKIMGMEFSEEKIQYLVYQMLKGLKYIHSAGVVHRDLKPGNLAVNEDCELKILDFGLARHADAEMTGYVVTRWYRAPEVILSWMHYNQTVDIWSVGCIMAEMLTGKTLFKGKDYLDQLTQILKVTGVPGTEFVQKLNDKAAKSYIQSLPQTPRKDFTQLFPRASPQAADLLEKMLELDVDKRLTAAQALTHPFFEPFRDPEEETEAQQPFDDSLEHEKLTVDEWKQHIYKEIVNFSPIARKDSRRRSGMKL
Procedure: as §4

Abl = Abl (Homo sapiens, UniProt P00519); test: Kinase Selectivity Assay (CEREP, HTRF); type: biochemical; set-up: CEREP, France (ran the assays); details: read-out: % Inhibition at 10 μM Concentration, Abl
Procedure: as §4

TRKA = TRKA (Homo sapiens, UniProt P04629); test: Kinase Selectivity Assay (CEREP, HTRF); type: biochemical; set-up: purchased CEREP, France (contract assay service); details: read-out: % Inhibition at 10 μM Concentration, TRKA
Procedure: as §4

[5] = HCC1954, 120 h, 5 days culture, read-out: Cell Line GI50 Range, HCC-1954
[6] = HCC1954, extended panel (Table 9), read-out: GI50 Range, HCC1954

Chain of TRKA (P04629 33-796): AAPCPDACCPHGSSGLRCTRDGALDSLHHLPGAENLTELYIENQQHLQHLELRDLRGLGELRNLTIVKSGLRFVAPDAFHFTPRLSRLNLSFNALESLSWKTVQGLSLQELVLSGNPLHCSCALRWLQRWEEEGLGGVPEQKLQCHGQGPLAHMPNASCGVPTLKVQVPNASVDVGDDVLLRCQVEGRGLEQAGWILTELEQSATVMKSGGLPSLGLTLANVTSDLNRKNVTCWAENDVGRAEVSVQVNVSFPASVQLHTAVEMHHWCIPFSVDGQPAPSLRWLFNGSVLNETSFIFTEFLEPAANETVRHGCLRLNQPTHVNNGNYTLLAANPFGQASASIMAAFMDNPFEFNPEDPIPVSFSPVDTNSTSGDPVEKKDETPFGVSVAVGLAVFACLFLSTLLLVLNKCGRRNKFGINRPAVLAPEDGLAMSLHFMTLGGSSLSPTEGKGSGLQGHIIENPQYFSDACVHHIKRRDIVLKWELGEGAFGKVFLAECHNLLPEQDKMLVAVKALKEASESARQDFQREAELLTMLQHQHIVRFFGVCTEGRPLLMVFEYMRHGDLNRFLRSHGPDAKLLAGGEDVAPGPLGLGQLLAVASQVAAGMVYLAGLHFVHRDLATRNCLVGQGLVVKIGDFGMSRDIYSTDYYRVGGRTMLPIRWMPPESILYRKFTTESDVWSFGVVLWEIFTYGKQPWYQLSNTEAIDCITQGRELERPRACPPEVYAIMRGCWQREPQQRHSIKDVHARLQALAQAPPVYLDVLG
T3 sequence (Q13882 whole entry): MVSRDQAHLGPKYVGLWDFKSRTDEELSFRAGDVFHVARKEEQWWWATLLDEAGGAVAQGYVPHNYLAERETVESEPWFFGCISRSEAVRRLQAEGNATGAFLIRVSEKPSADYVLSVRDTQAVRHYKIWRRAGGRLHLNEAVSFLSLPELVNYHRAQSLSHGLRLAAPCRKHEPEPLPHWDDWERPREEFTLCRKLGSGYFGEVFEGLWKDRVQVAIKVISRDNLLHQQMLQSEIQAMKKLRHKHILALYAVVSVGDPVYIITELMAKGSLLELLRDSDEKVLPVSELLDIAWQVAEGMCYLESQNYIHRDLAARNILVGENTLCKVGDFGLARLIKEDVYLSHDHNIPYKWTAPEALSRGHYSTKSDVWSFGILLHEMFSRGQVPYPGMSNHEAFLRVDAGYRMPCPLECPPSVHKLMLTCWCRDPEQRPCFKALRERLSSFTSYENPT
Chain of PKCb2 (P05771 1-673 isoform P05771-2): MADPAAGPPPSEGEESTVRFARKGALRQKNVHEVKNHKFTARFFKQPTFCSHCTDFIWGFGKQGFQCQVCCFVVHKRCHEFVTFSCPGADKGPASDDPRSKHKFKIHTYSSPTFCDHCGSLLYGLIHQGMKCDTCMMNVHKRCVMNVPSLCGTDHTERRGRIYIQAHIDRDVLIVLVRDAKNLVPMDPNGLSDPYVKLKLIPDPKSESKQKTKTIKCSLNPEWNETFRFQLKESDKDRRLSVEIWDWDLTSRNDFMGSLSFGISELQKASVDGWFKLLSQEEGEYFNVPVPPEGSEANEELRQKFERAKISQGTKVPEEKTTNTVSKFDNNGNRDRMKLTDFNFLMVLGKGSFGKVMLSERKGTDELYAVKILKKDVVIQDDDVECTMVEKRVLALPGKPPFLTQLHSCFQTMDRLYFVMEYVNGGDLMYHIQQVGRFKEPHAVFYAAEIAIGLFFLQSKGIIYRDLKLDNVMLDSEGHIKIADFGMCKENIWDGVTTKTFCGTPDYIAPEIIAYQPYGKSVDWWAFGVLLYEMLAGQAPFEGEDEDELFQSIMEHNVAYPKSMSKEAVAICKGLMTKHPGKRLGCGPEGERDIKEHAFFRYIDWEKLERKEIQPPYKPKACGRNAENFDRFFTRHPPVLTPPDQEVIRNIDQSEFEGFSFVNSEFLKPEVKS
Chain of Abl (P00519 whole entry): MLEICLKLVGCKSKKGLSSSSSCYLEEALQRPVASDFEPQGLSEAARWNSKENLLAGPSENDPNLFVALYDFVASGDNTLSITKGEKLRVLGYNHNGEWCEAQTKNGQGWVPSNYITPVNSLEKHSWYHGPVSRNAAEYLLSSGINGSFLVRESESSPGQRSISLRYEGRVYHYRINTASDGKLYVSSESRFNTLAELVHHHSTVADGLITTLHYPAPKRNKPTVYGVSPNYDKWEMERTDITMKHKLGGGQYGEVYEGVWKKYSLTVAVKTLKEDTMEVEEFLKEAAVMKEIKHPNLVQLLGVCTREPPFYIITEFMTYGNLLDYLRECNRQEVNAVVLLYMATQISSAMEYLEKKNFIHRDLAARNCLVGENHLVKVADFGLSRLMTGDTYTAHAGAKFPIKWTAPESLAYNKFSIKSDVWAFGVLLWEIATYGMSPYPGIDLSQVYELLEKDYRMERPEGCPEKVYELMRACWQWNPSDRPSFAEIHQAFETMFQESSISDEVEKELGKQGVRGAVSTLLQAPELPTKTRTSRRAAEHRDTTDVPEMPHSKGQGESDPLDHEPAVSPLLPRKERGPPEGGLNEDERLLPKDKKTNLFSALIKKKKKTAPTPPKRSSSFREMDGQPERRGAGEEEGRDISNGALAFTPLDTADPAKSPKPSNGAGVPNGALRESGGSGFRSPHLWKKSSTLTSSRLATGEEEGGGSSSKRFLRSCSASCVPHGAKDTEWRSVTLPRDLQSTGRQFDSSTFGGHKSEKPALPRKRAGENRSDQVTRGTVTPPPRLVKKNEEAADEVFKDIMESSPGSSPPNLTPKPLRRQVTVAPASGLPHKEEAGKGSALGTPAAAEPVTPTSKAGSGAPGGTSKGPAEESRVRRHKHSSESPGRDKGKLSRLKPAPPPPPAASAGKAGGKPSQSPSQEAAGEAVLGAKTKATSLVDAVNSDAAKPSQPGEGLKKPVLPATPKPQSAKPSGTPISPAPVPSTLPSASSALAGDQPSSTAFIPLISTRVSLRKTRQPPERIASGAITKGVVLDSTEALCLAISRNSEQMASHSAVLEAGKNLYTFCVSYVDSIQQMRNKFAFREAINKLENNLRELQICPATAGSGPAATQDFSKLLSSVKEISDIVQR
Chain of KDR kinase (VEGFR2) (P35968 20-1356): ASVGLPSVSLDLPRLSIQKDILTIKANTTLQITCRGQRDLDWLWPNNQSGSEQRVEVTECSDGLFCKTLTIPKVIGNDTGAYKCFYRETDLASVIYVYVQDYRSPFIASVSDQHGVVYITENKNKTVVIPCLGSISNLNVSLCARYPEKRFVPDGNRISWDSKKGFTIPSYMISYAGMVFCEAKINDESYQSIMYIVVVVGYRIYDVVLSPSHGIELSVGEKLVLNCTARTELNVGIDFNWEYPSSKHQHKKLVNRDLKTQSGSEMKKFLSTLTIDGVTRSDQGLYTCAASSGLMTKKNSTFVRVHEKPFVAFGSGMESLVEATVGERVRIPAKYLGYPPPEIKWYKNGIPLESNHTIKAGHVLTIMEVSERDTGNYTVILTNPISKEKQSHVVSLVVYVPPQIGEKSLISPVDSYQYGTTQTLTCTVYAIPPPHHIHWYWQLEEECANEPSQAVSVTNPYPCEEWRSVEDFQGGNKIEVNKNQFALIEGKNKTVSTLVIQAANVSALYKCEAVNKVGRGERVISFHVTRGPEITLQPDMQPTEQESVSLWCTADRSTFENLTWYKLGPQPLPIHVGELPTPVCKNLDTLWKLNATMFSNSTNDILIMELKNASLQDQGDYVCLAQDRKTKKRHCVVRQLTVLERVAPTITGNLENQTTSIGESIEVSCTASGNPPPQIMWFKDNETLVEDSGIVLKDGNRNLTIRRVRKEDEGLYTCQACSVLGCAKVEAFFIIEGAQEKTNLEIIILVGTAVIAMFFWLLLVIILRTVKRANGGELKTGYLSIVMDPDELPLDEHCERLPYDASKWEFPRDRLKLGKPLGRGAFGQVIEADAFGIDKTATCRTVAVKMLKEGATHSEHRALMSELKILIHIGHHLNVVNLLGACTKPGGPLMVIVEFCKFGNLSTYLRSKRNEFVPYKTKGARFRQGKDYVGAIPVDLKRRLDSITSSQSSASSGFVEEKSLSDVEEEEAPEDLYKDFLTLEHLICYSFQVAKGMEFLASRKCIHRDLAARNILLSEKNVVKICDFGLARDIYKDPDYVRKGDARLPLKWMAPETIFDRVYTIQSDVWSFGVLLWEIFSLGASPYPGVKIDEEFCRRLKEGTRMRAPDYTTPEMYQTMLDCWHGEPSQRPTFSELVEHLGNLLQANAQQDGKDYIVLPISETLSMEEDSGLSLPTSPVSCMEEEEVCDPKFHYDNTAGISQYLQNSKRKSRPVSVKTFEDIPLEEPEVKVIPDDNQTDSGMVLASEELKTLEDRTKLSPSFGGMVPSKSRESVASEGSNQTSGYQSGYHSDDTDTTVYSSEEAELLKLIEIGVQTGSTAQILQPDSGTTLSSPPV

Row | SMILES | pIC50 (FGFR1) | pIC50 (FLT-1) | pIC50 (PDGFRβ) | GI50 (A549 lung cancer cells) [µM] | GI50 [1, 5] [µM] | GI50 [2] [µM] | GI50 [3] [µM] | GI50 (SW620 colon cancer cells) [µM] | GI50 [4] [µM] | GI50 [1, 6] [µM] | inhibition at 10 µM (Brk) [%] | inhibition at 10 µM (KDR kinase (VEGFR2)) [%] | inhibition at 10 µM (PKCb2) [%] | inhibition at 10 µM (p38d kinase) [%] | inhibition at 10 µM (Abl) [%] | inhibition at 10 µM (TRKA) [%]
1 | CN(C)Cc1ccc(/C=C/c2n[nH]c3cc(C=C4C(=O)Nc5ccccc54)ccc23)cc1 (mixture of isomers) [Example A106, (E and Z)-3-[(3-{(E)-2-[4-((dimethylamino)methyl)-phenyl]-ethenyl}-1H-indazol-6-yl)methylidene]-1,3-dihydro-2H-indol-2-one 2,2,2-trifluoroacetate] | > 5.30 | > 5.30 | > 5.30 | < 5 | < 5 | < 5 | < 5 | < 5 | 5 to 20 |  |  |  |  |  |  | 
2 | CN1CCN(c2ccc(/C=C/c3n[nH]c4cc(C=C5C(=O)Nc6ccccc65)ccc34)cn2)CC1 (mixture of isomers) [Example A108, (E and Z)-3-((3-((E)-2-(6-(4-methylpiperazin-1-yl)pyridin-3-yl)vinyl)-1H-indazol-6-yl)methylene)indolin-2-one] |  |  |  | < 5 | < 5 | < 5 | < 5 | < 5 | < 5 | < 5 |  |  |  |  |  | 
3 | O=C1Nc2ncc(Br)cc2C1=Cc1ccc2c(/C=C/c3ccncc3)n[nH]c2c1 (mixture of isomers) [Example A109, (E and Z)-5-bromo-3-((3-((E)-2-(pyridin-4-yl)vinyl)-1H-indazol-6-yl)methyl-ene)-1H-pyrrolo[2,3-b]pyridin-2(3H)-one] |  |  |  | < 5 | > 50 | < 5 | < 5 | < 5 | > 50 | > 50 |  |  |  |  |  | 
4 | O=C1Nc2ccccc2/C1=C\c1ccc2cn[nH]c2c1 [Example A5, (E)-3-((1H-indazol-6-yl)methylene)indolin-2-one] |  |  |  |  |  |  |  |  |  |  | -6 | 29 | 2 | -8 | 24 | 60
5 | COc1ccc2c(c1)C(=Cc1ccc3c(-c4ccc(N5CCN(C)CC5)nc4)n[nH]c3c1)C(=O)N2 (mixture of isomers) [Example A97, (E and Z)-5-methoxy-3-((3-(6-(4-methylpiperazin-1-yl)pyridin-3-yl)-1H-indazol-6-yl)methylene)indolin-2-one] | > 5.30 | > 5.30 | 4.30 to 5.30 | < 5 | < 5 | < 5 | < 5 | < 5 | 20 to 50 | < 5 | 7 | 93 | 37 | 13 | 99 | 93
6 | O=C1Nc2ccccc2C1=Cc1ccc2c(/C=C/c3ccccn3)n[nH]c2c1 (mixture of isomers) [Example A41, (E and Z)-3-((3-((E)-2-(pyridin-2-yl)vinyl)-1H-indazol-6-yl)methylene)indolin-2-one] | > 5.30 | > 5.30 | > 5.30 | 5 to 20 | 20 to 50 | < 5 | < 5 | 5 to 20 | > 50 | < 5 | 40 | 100 | 12 | -5 | 100 | 99
7 | O=C1Nc2ccccc2/C1=C\c1ccc2[nH]nnc2c1 [Example A1, (E)-3-((1H-benzo[d][1,2,3]triazol-5-yl)methylene)indolin-2-one] |  |  |  |  |  |  |  |  |  |  | 5 | 59 | 0 | 0 | 34 | -13
8 | O=C1Nc2ccccc2/C1=C\c1ccc2c(/C=C/c3ccccc3Cl)n[nH]c2c1 [Example A60, (E)-3-((3-((E)-2-chlorostyryl)-1H-indazol-6-yl)methylene)indolin-2-one] |  |  |  |  |  |  |  |  |  |  | 4 | 8 | 4 | 3 | 40 | 75
